Laboratory results: PMC9732821, “Neurotrophic Activity and Its Modulation by Zinc Ion of a Dimeric Peptide Mimicking the Brain-Derived Neurotrophic Factor N-Terminal Region” (ACS Chemical Neuroscience, 2022)

B1: brain-derived neurotrophic factor (protein, UniProt P23560 1-247, looked up)
chain: MTILFLTMVISYFGCMKAAPMKEANIRGQGGLAYPGVRTHGTLESVNGPKAGSRGLTSLADTFEHVIEELLDEDQKVRPNEENNKDADLYTSRVMLSSQVPLEPPLLFLLEEYKNYLDAANMSMRVRRHSDPARRGELSVCDSISEWVTAADKKTAVDMSGGTVTVLEKVPVSKGQLKQYFYETKCNPMGYTKEGCRGIDKRHWNSQCRTTQSYVRALTMDSKKRIGWRFIRIDTSCVCTLTIKRGR
modifications: full-length
notes: full-length human BDNF produced recombinantly in Escherichia coli

Experiments:
ERK = ERK phosphorylation, in cell ELISA in differentiated SH-SY5Y cells; type: cell-based, human; settings: for ERK phosphorylation increase vs unstimulated control: 10 min, 150 ng/mL BDNF or 10 μM peptide, three independent replicas in duplicate; for EC50 / maximal effect (Emax) of ERK phosphorylation: dose–response, differentiated SH-SY5Y, two independent replicas in duplicate; for maximal effect (Emax) of ERK phosphorylation: BDNF and d-bdnf not significantly different
Experimental: Figure 1 Activation of the TrkB receptor by BDNF and its mimetic peptide ligands. (A) Schematic picture of the human TrkB receptor fused to the EGFP construct (hTrkB-EGFP); recombinant human mature BDNF (hBDNF); monomeric peptide, m-bdnf; dimeric peptide, d-bdnf; scrambled s-bdnf. (B) WB showing Tyr phosphorylation (p-Tyr, top) and total TrkB levels (bottom) in SH-SY5Y cells transfected with hTrkB-EGFP in the absence (ctrl) or presence of 10 min stimulation with 150 ng/mL BDNF or 10 μM m-bdnf, d-bdnf, or s-bdnf. Samples were immunoprecipitated (IP) with the anti-GFP antibody before WB. The relative density of the bands is reported on the right of the blots, as mean ± SEM of five (BDNF) and four (peptides) independent replicas; each p-Tyr band density was divided for the respective TrkB band and normalized to the ctrl signal (***p < 0.001, *p < 0.05 vs ctrl, according to one-way ANOVA with Bonferroni’s multiple comparison test). (C) Scatter dot plot of ERK (left) and AKT (right) phosphorylation levels detected in differentiated SH-SY5Y cells, after stimulation with the same treatments as in (B). Phosphorylation levels were normalized to the cell number and reported as percentage versus the ctrl. Data ± SD were pooled from three independent replicas performed in duplicate. (D) ERK phosphorylation dose–response curve of BDNF and d-bdnf. Data ± SEM were pooled from two independent replicas performed in duplicate. (E) Intensity image of a TrkB-EGFP transfected cell (scale bar 10 μm). White square defines a region of the image that contains both the cell membrane and the background signal. […] The dashed black lines identify the mean values of B for the monomer and the dimer, as indicated. (G) Bar graph of mean ± SD ‘B-1’ values retrieved from N&B analysis for all the different conditions measured. The horizontal dashed lines indicate the ‘B-1’ average values assigned to the monomer (based on data from f-EGFP) and the dimer. Data (round circles) were pooled from two independent experiments. A one-way ANOVA with Dunnett’s multiple comparisons test was applied to compare data to the f-EGFP reference (*p < 0.05, ***p < 0.001, ****p < 0.0001). […]
(§1) ERK and AKT phosphorylation were assessed in a 96-well plate format, performing an in cell ELISA assay as previously described 4. SH-SY5Y or HEK 293T cells were seeded at a density of 5.000 and 80.000 cell/well in 96 multiwell respectively, and the former were differentiated as describe above.
Cells were treated as described for TrkB phosphorylation or reported in the graphs, then washed with 0.1% Triton X-100 in PBS and fixed with 4% paraformaldehyde. Cells were then permeabilized (1% BSA; 0.1% Triton X-100 in PBS) for 1 hour, at the end, cells were incubated overnight at 4°C with anti-phospho ERK (1:500, sc-7383, Santa Cruz) or phosphor AKT (1:500, sc-16646-R-, Santa Cruz) antibodies. Next day, after the incubation with HRP-conjugated secondary antibody (anti-mouse # 31430, Invitrogen; anti-rabbit A0545, Sigma-Aldrich) the TMB substrate was added and the absorbance was read at 450 nm. Cells were incubated with only the secondary antibody to obtain the aspecific binding (Blanks). The absorbances were normalized to the relative number of cells in each well that was determined using Crystal Violet staining. […]
°C with chicken anti-BDNF (1:100, G164A Promega) antibody diluted in 2.5% BSA/PBS. The next morning samples were incubated with an Alexa568-conjugated anti-chicken secondary antibody (1:500, Thermofisher) in 2.5% BSA/PBS for 2h at room temperature. Coverslips were mounted with Fluoroshield-DAPI (Sigma-Aldrich) and imaged with a laser scanning confocal microscope (Nikon A1, Eclipse Ti), using a 60× oil objective (NA 1 .40) and pinhole set to 1 AU. Images were acquired […]
nm laser (emission window 545-645 nm). BDNF fluorescence intensity was analysed using FIJI ImageJ software. Briefly, the background intensity was subtracted from all red channel fields and an […]

AKT = AKT phosphorylation, in cell ELISA in differentiated SH-SY5Y cells; type: cell-based, human; settings: 10 min; 150 ng/mL BDNF or 10 μM peptide; three independent replicas in duplicate
Experimental: as §1
Cells were treated as described for TrkB phosphorylation or reported in the graphs, then washed with 0.1% Triton X-100 in PBS and fixed with 4% paraformaldehyde. Cells were then permeabilized (1% BSA; 0.1% Triton X-100 in PBS) for 1 hour, at the end, cells were incubated overnight at 4°C with anti-phospho ERK (1:500, sc-7383, Santa Cruz) or phosphor AKT (1:500, sc-16646-R-, Santa Cruz) antibodies. Next day, after the incubation with HRP-conjugated secondary antibody (anti-mouse # 31430, Invitrogen; anti-rabbit A0545, Sigma-Aldrich) the TMB substrate was added and the absorbance was read at 450 nm. Cells were incubated with only the secondary antibody to obtain the aspecific binding (Blanks). The absorbances were normalized to the relative number of cells in each well that was determined using Crystal Violet staining.
SH-SY5Y Immunofluorescence analysis
SH-SY5Y cells were seeded on a 24-well plate (5.000 cell/well) and differentiated with retinoic acid as describe above. Cells were treated for 60’ in an unsupplemented medium with BDNF (150 ng/ml) or d-bdnf (10 µM) alone or in combination. Samples were then fixed (4% PFA, 5% sucrose/PBS, 15 min) and subjected to a non-permeabilizing immunofluorescence assay. Briefly, cells were incubated with the blocking solution (5% BSA/PBS) for 1 h at room temperature and incubated overnight at 4 °C with chicken anti-BDNF (1:100, G164A Promega) antibody diluted in 2.5% BSA/PBS. The next morning samples were incubated with an Alexa568-conjugated anti-chicken secondary antibody (1:500, Thermofisher) in 2.5% BSA/PBS for 2h at room temperature. Coverslips were mounted with Fluoroshield-DAPI (Sigma-Aldrich) and imaged with a laser scanning confocal microscope (Nikon A1, Eclipse Ti), using a 60× oil objective (NA 1 .40) and pinhole set to 1 AU. Images were acquired […]
nm laser (emission window 545-645 nm). BDNF fluorescence intensity was analysed using FIJI ImageJ software. Briefly, the background intensity was subtracted from all red channel fields and an image threshold was applied to calculate the mean fluorescence intensity of the cells only. Results shown constitute the pool of fields stemming from two replicates.
ReNCell cell culture, differentiation and immunofluorescence analysis

Row | Molecule | ERK phosphorylation increase vs unstimulated control (ERK) | AKT phosphorylation increase vs unstimulated control (AKT) | EC50 (ERK) [µM] | maximal effect (Emax) of ERK phosphorylation (ERK) | EC50 (ERK; referred to the monomer form) [µM]
1 | HSDPARRGELSV-NH2 [m-bdnf, linear peptide fragment encompassing the first 12 amino acids of the mature NT N-terminal] | only BDNF and d-bdnf were able to induce a significant ERK and AKT phosphorylation increase | only BDNF and d-bdnf were able to induce a significant ERK and AKT phosphorylation increase | – | – | –
2 | HSDPARRGELSVC-C-VSLEGRRAPDSH (disulfide) [d-bdnf] | significant ERK and AKT phosphorylation increase | significant ERK and AKT phosphorylation increase | 13.6 ± 3.87 | 227.3 ± 6.3 | –
3 | SRAGPHLRDVSE-NH2 [s-bdnf] | only BDNF and d-bdnf were able to induce a significant ERK and AKT phosphorylation increase | only BDNF and d-bdnf were able to induce a significant ERK and AKT phosphorylation increase | – | – | –
4 | B1 | significant ERK and AKT phosphorylation increase | significant ERK and AKT phosphorylation increase | – | 237.1 ± 5.0 | 0.00069 ± 0.00024
